Experimental data taken from PMC4126480, “Evaluation of drug interaction potential of Labisia pumila (Kacip Fatimah) and its constituents” (Frontiers in Pharmacology, 2014).

Tests used:
P-gp [1] = biological target: T1, P-gp (Homo sapiens, UniProt P08183); test: P-gp inhibition by 3H-digoxin basolateral to apical transport in hMDR1-MDCK-II cells
Procedure: The cells were seeded at a density of 120,000 cells/well in 12-well Transwell plates and cultured for 3 days. […] Cells were washed with warm HBSS buffer supplemented with 10 mM HEPES (pH 7.4) and pre-incubated with 0.5 mL of buffer containing test samples (six concentrations) on the apical side and 1.5 mL of buffer on the basolateral side for 30 min (37 °C, 5% CO2, and 95% relative humidity). […] Aliquots of 25 μL were taken out from the apical side, mixed with 100 μL of scintillant (Microscint TM-40, PerkinElmer) and radioactive counts were measured on a TopCount microplate scintillation counter (PerkinElmer, Waltham, MA, USA) in CPM mode.
The inhibition of the basolateral to apical (B-A) transport of digoxin by test samples was calculated compared to the vehicle control.

PXR = biological target: T2, PXR (Homo sapiens, UniProt O75469); test: Inhibition of rifampicin-induced PXR activity, reporter gene assay in HepG2 cells; assay type: cell-based; settings: extract 3–30 μg/mL, saponins 3–30 μM
T2 construct: expressed in transfected cells; host or cells: HepG2 cells, transient electroporation with pSG5-PXR and the CYP3A4-PXRE-LUC reporter
T2 sequence (O75469 1-434): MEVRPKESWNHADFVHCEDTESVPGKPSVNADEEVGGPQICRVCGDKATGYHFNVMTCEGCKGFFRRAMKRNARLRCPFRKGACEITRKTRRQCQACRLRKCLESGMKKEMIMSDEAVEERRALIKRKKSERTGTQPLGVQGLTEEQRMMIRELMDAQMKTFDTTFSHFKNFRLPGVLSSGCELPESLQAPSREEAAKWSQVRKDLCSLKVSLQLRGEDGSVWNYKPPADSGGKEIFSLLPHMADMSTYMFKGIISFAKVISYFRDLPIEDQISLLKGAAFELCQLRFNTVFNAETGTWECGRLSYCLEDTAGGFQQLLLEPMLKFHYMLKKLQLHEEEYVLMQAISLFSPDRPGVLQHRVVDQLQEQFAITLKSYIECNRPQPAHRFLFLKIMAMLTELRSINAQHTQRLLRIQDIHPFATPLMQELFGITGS
Source text: The pSG5-hPXR expression vector was provided generously by Dr. Steven Kliewer (University of Texas Southwestern Medical Center, Dallas, TX, USA; [Lehmann et al., 1998]) and the reporter plasmid CYP3A4-PXR response element (PXRE)-LUC (containing the proximal 0/–362 and distal 7208/7797 PXRE regions fused upstream of luciferase; [Goodwin et al., 1999]) was a kind gift from Dr. Christopher Liddle (University of Sydney, Westmead, NSW, Australia). The modulation of PXR activity by test samples was determined in HepG2 cells transiently transfected with pSG5-PXR (25 μg) and PCR5 plasmid DNA (25 μg) by electroporation at 180 V, 1 pulse for 70 msec. The cells were plated in 96-well plates at a density of 50,000 cells per well. […] After additional 24 hour incubation, the media was aspirated and 40 μL of luciferase reagent (Promega Corporation, Madison, WI, USA) was added to each well and luminescence was measured on Spectramax M5 plate reader (Molecular Devices, Sunnyvale, CA, USA). The fold induction in luciferase activity in the treated cells was calculated in comparison to vehicle treated cells. The cytotoxicity of test samples toward HepG2 cells was also determined by measuring the cell viability using the CellTiter 96 AQueous One Solution Cell Proliferation Assay (MTS) as described earlier ([Manda et al., 2013]).

[2] = Estimation of concentration per dose, GIT and plasma concentrations (560 mg KF extract dose); set-up: species or system human; settings: for Estimated concentration per dose: 560 mg KF extract, single dose, from % yield; for Estimated GIT concentration / Estimated Plasma concentration: 560 mg dose; for Estimated GIT concentration: human GIT volume 250 mL; for Estimated Plasma concentration: Table 2, plasma volume 3 L, 100% bioavailable assumed
Procedure: All assumptions to predict the HDI potential of KF methanolic extract and its constituents were according to previously published report ([Awortwe et al., 2014]). The % yield was calculated from the amounts extracted from the KF roots ([Ali and Khan, 2011]). The human GIT volume is 250 mL and plasma volume is about 3 L. The commonly used maximum dose of KF extract capsules is 560 mg per day ([Abdul Kadir et al., 2012]) and accordingly we estimated the concentration per dose, GIT, and plasma concentrations of extract and its constituents. We then compared the in vitro IC50 values obtained from recombinant CYPs with estimated GIT and plasma concentrations. If the IC50 values were lower than the GIT or plasma concentration, then the test compound or extract is likely to cause HDI in vivo.

P-gp [3] = biological target: T1, P-gp; test: P-gp inhibition by calcein-AM uptake in hMDR1-MDCK-II cells
Procedure: Cells were seeded in 96-well plates at 70,000 cells/well in 200 μL of culture medium. The medium was changed at 24 h after seeding and the assay was performed 48 h later.

[4] = tested on: hMDR1-MDCK-II cell monolayers; test: Monolayer integrity: permeability of Lucifer yellow; assay type: in vitro ADME, canine; settings: paracellular marker
Procedure: The cells were seeded at a density of 120,000 cells/well in 12-well Transwell plates and cultured for 3 days. TEER values were in the range of 500–800 Ω cm^2. Cells were washed with warm HBSS buffer supplemented with 10 mM HEPES (pH 7.4) and pre-incubated with 0.5 mL of buffer containing test samples (six concentrations) on the apical side and 1.5 mL of buffer on the basolateral side for 30 min (37 °C, 5% CO2, and 95% relative humidity).

T1 sequence (P08183 whole entry): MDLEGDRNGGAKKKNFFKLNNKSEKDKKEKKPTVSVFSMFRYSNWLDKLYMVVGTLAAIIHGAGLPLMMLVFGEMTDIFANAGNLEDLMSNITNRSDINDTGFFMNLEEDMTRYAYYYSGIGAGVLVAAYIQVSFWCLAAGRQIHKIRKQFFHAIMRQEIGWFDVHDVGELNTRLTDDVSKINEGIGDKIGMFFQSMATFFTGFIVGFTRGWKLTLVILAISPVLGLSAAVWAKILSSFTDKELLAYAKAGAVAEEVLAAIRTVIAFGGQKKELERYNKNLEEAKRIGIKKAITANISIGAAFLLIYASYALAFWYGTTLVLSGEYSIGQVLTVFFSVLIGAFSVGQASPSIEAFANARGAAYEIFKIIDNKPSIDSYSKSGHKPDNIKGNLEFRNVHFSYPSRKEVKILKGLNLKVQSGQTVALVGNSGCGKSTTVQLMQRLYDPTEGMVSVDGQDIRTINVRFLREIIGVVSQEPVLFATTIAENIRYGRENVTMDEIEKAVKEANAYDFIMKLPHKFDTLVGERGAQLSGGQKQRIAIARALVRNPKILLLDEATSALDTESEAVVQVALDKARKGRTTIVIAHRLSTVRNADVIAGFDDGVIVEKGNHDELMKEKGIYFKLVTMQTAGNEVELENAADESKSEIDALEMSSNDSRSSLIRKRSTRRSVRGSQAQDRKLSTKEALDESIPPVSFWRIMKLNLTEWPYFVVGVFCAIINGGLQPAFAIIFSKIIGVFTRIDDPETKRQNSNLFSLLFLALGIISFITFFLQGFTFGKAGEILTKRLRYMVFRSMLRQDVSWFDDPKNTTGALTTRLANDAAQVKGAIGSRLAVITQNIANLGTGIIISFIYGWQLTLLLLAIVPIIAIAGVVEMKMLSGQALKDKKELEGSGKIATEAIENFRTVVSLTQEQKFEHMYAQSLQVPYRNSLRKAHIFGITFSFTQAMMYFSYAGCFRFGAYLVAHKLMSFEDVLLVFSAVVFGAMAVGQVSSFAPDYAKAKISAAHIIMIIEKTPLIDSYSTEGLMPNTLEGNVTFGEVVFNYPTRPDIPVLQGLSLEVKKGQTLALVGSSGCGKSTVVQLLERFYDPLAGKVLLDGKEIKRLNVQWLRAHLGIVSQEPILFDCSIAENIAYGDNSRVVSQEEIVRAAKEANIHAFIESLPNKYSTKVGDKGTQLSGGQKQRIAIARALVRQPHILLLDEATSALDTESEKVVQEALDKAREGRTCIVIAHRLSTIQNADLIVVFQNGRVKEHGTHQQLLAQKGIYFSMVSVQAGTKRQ

Row | Compound | IC50 (P-gp [1]) | Effect on rifampicin-induced PXR activity (PXR) | Estimated concentration per dose [2] | Estimated GIT concentration [2] | Estimated Plasma concentration [2] | EC50 (P-gp [3]) | Papp value [4]
1 | CC1(C)[C@@H](O[C@@H]2OC[C@H](O[C@@H]3O[C@H](CO)[C@@H](O)[C@H](O)[C@H]3O[C@@H]3OC[C@@H](O)[C@H](O)[C@H]3O)[C@H](O)[C@H]2O)CC[C@]2(C)[C@H]3CC[C@]45OC[C@@]6(CC[C@](C)(C=O)C[C@H]64)[C@H](O)C[C@@]5(C)[C@]3(C)CC[C@@H]12 [Primulanin] | 6.4 ± 2.3 µM | dose dependently decreased | 0.07 mg/mL | 0.31 µg/mL | 0.026 µg/mL | 34 ± 2.3 µM | –
2 | C[C@@H]1O[C@@H](O[C@H]2[C@H](O[C@H]3CO[C@@H](O[C@H]4CC[C@]5(C)[C@H]6CC[C@]78OC[C@@]9(CC[C@](C)(C=O)C[C@H]97)C(=O)C[C@@]8(C)[C@]6(C)CC[C@H]5C4(C)C)[C@H](O)[C@H]3O)O[C@H](CO)[C@@H](O)[C@@H]2O)[C@H](O)[C@H](O)[C@H]1O [Ardisimamilloside H] | 4.2 ± 1.1 µM | dose dependently decreased | 0.011 mg/mL | 0.047 µg/mL | 0.003 µg/mL | 42 ± 3.5 µM | –
3 | Lucifer yellow [LY] | – | – | – | – | – | – | 1.1 ± 0.8 × 10^-6 cm/s
